# Laboratory results as given in paper PMC9268102, “Design, Synthesis and Biological Evaluation of 1,3,5-Triazine Derivatives Targeting hA1 and hA3 Adenosine Receptor” (Molecules, 2022).
# Where “and” joins values, the source holds several entries; their conditions need not be identical. Equal values may be shown once. Read-outs that look alike come from different tables or passages of the source.
# Tests used:
# [1] = biological target: T1, hA1 AR (Homo sapiens, UniProt P30542); assay: Radioligand competition binding assay at hA1 AR; conditions: for inhibition at 10 µM / Percentage Inhibition (%) at 10 μM, hA1 AR: 10 μM compound; for inhibition at 10 µM / Percentage Inhibition (%) at 10 μM, hA1 AR / Ki: [3H]DPCPX, CHO cells; for inhibition at 10 µM: read-out: Percentage Inhibition (%) at 10 μM, hA1 AR
# T1 construct: host or cells: CHO-A1 (CHO cells expressing hA1 AR)
# T1 sequence (P30542 1-326): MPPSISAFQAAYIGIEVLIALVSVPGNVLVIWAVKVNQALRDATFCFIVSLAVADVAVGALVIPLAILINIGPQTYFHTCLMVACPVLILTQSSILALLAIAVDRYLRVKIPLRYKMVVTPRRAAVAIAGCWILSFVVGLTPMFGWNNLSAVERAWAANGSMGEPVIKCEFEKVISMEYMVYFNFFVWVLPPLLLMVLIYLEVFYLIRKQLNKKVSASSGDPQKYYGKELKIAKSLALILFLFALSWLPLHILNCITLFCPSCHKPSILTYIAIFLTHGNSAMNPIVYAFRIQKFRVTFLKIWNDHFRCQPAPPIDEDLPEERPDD
# Description: (§1) All the synthesized compounds were screened with radioligand binding assays at hARs. First, the percentage of inhibition was measured by treatment of each hAR subtype with 10 μM of each compound (Table 1).
# (§2) hA1, hA2A, and hA3 AR competition binding experiments were carried out in a multiscreen GF/C 96-well plate (Millipore, Madrid, Spain) pretreated with binding buffer (Hepes 20 mM, NaCl 100 mM, MgCl2 10 mM, 2 U/mL adenosine deaminase, pH = 7.4 for hA1 AR; Tris-HCl 50 mM, EDTA 1 mM, MgCl2 10 mM, 2 U/mL adenosine deaminase, pH = 7.4 for hA2A AR; and Tris-HCl 50 mM, EDTA 1 mM, MgCl2 5 mM, 2 U/mL adenosine deaminase, pH = 7.4 for hA3 AR, respectively). In each well was incubated 5 µg of membranes from Euroscreen CHO-A1 cell line, 5µg of membranes from Hela-A2A cell line, or 30µg of membranes from Hela-A3 cell line and prepared in laboratory: 1 nM [^3H]-DPCPX (140 Ci/mmol, 1 mCi/Ml, Perkin Elmer NET974001MC) for hA1 AR; 1 nM [^3H]-ZM241385 (50 Ci/mmol, 1 mCi/mL, ARC-ITISA 0884) for hA2A AR; and 10 nM [^3H]-NECA (29.6 Ci/mmol, 1 mCi/mL, Perkin Elmer NET811250UC) for hA3 AR, respectively; and the compounds studied according to standard protocol. Non-specific binding was determined in the presence of R-PIA 10 µM (Sigma P4532) for hA1 AR; of NECA 50 µM (Sigma E2387) for hA2A AR; and of R-PIA 100 µM (Sigma P4532) for hA3 AR, respectively. The reaction mixture (Vt: 200 µL/well) was incubated at 25 °C for 60 min (hA1 AR), 30min (hA2A AR), or 180min (hA3 AR); whereafter it was filtered and washed four times (hA1 and hA2A AR) or six times (hA3 AR) with 250 μL wash buffer (Hepes 20 mM, NaCl 100 mM, MgCl2 10 mM pH = 7.4, for hA1 AR; Tris-HCl 50 mM, EDTA 1 mM, MgCl2 10 mM, pH = 7.4, for hA2A AR; and Tris-HCl 50mM pH = 7.4, for hA3 AR, respectively) before being measured in a microplate beta scintillation counter (MicrobetaTrilux, PerkinElmer, Madrid, Spain).
# [2] = biological target: T2, hA2A AR (Homo sapiens, UniProt P29274); assay: Radioligand competition binding assay at hA2A AR; conditions: 10 μM compound, [3H]ZM241385, Hela cells; for inhibition at 10 µM: read-out: Percentage Inhibition (%) at 10 μM, hA2A AR
# T2 construct: expressed in transfected cells; host or cells: Hela-A2A cell line
# Description: as §1, §2
# [3] = biological target: T3, hA2B AR (Homo sapiens, UniProt P29275); assay: Radioligand competition binding assay at hA2B AR; conditions: 10 μM compound; [3H]DPCPX; HEK-293 cells; read-out: Percentage Inhibition (%) at 10 μM, hA2B AR
# T3 construct: host or cells: HEK-A2B (HEK-293T-A2B) cell line
# T3 sequence (P29275 1-332): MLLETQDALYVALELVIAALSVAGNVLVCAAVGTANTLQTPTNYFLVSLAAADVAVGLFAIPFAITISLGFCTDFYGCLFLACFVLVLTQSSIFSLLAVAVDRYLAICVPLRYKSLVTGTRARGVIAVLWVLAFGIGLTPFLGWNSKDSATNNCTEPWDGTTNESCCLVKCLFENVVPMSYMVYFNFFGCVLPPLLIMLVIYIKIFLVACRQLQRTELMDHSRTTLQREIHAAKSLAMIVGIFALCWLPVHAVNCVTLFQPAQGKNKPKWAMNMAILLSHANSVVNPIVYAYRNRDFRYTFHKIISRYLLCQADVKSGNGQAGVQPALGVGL
# Description: as §1
# hA2B AR competition binding experiments were carried out in a multiscreen GF/C 96-well plate. In each well was incubated 25 µg of membranes from Euroscreen HEK-A2B cell line and prepared in laboratory, 25 nM [^3H]-DPCPX (140 Ci/mmol, 1 mCi/mL, Perkin Elmer NET974001MC) and compounds studied according to standard protocol. Non-specific binding was determined in the presence of NECA 1000 µM (Sigma E2397). The reaction mixture (Vt: 250 µL/well) was incubated at 25°C for 30 min, 200 µL was transferred to GF/C 96-well plate (Millipore, Madrid, Spain), and pretreated with binding buffer (Tris-HCl 50 Mm, EDTA 1 mM, MgCl2 5 mM, Bacitracin […], adenosine deaminase 2 U/Ml, pH = 6.5). It was then filtered and washed four times with 250 μL wash buffer (Tris-HCl 50 mM, EDTA 1 mM, MgCl2 5 mM, pH = 6.5), before being measured in a microplate beta scintillation counter (MicrobetaTrilux, PerkinElmer, Madrid, Spain).
# [4] = biological target: T4, hA3 AR (Homo sapiens, UniProt P0DMS8); assay: Radioligand competition binding assay at hA3 AR; set-up: expressed in transfected cells; host or cells: Hela-A3 cell line; conditions: [3H]NECA; for inhibition at 10 µM / Percentage Inhibition (%) at 10 μM, hA3 AR: 10 μM compound; for inhibition at 10 µM: read-out: Percentage Inhibition (%) at 10 μM, hA3 AR
# T4 sequence (P0DMS8 1-318): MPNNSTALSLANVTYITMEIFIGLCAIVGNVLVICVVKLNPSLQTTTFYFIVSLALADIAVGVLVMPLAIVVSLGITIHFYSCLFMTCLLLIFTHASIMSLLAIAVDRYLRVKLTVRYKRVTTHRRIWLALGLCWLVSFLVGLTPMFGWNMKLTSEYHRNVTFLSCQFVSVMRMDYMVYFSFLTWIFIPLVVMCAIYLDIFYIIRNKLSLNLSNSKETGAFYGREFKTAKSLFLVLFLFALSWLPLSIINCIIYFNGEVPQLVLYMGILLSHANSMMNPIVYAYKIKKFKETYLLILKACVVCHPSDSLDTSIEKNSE
# Description: as §1, §2
# [5] = biological target: T1, hA1 AR; conditions: read-out: Ki at hA1AR; cited from earlier work
# [6] = biological target: T2, hA2A AR; conditions: cited from earlier work
# T2 sequence (P29274 whole entry): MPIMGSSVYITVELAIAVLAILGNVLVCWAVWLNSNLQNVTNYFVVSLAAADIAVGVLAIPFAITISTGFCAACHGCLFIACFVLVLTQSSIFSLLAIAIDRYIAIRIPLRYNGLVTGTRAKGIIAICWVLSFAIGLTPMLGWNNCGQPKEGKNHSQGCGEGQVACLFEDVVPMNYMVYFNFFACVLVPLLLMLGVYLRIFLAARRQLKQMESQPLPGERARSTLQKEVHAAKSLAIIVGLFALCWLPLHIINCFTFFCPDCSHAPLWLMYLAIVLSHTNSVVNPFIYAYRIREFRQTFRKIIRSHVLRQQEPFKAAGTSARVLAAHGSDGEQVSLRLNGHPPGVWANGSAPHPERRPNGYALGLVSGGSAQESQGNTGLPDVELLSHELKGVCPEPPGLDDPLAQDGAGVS
Structure (SMILES),inhibition at 10 µM [1],inhibition at 10 µM [2],inhibition at 10 µM [3],inhibition at 10 µM [4],"Percentage Inhibition (%) at 10 μM, hA1 AR [1]","Percentage Inhibition (%) at 10 μM, hA1 AR ([1]; 10 µM)",Ki [1],Ki [5],Selectivity hA1/hA2AAR [6],"Percentage Inhibition (%) at 10 μM, hA3 AR [4]",Ki [4],Selectivity (hA1 AR:hA3 AR) ([1]; ratio of Ki hA1 AR to Ki hA3 AR),"Percentage Inhibition (%) at 10 μM, hA2A AR ([2]; 10 µM)"
"COc1ccc(Nc2nc(N)nc(-c3ccc(C#N)cc3)n2)cc1F [Compound 11e, 4-{4-amino-6-[(3-fluoro-4-methoxyphenyl)amino]-1,3,5-triazin-2-yl}benzonitrile]",45 ± 5%,50 ± 2%,52 ± 1%,72 ± 3%,–,–,–,–,–,–,–,–,–
"COc1ccc(Nc2nc(N)nc(-c3ccc(F)c([N+](=O)[O-])c3)n2)cc1F [Compound 11i, 6-(4-fluoro-3-nitrophenyl)-N^2-(3-fluoro-4-methoxyphenyl)-1,3,5-triazine-2,4-diamine]",53 ± 1%,57 ± 2%,72 ± 6%,83 ± 1%,inactive,–,–,–,–,–,–,–,–
"Cc1ccc(Nc2nc(N)nc(-c3ccc(O)cc3)n2)c(C)c1 [Compound 9g, 4-{4-amino-6-[(2,4-dimethylphenyl)amino]-1,3,5-triazin-2-yl}phenol]",> 95%,80 ± 4%,47 ± 2%,91 ± 1%,–,99 ± 1%,116 nM,–,–,–,–,–,–
"Nc1nc(Nc2ccc(N3CCCCC3)cc2)nc(-c2ccc(O)cc2)n1 [Compound 9f, 4-(4-amino-6-{[4-(piperidin-1-yl)phenyl]amino}-1,3,5-triazin-2-yl)phenol]",28 ± 1%,28 ± 3%,44 ± 4%,38 ± 1%,–,–,–,–,–,–,–,–,–
"COc1ccc(Nc2nc(N)nc(-c3ccc(OC(F)(F)F)cc3)n2)cc1F [Compound 11c, N^2-(3-fluoro-4-methoxyphenyl)-6-[4-(trifluoromethoxy)phenyl]-1,3,5-triazine-2,4-diamine]",48 ± 4%,81 ± 1%,27 ± 6%,60 ± 1%,–,–,–,–,–,–,–,–,–
"Cc1cc(C)cc(Nc2nc(N)nc(-c3ccc(O)cc3)n2)c1 [Compound 9e, 4-{4-amino-6-[(3,5-dimethylphenyl)amino]-1,3,5-triazin-2-yl}phenol]",> 95%,58 ± 3%,42 ± 2%,92 ± 1%,–,96 ± 3%,872 nM,–,–,–,–,–,–
Cc1ccsc1/C=C/c1nc(N)nc(-c2ccccc2O)n1 [Compound 3],–,–,–,–,–,–,–,32.9 nM,9.5,–,–,–,–
Nc1nc(NCCc2ccc(O)cc2)nc(Nc2nc(-c3ccc(F)cc3)cs2)n1 [Compound 6],–,–,–,–,–,–,–,478 nM,319 and 318.9,–,–,–,–
"COc1ccc(Nc2nc(N)nc(-c3ccc(C(F)(F)F)cc3)n2)cc1F [Compound 11d, N^2-(3-fluoro-4-methoxyphenyl)-6-[4-(trifluoromethyl)phenyl]-1,3,5-triazine-2,4-diamine]",74 ± 1%,30 ± 1%,93 ± 3%,79 ± 1%,–,–,–,–,–,–,–,–,–
"Nc1nc(Nc2cccc(C(F)(F)F)c2)nc(-c2ccc(O)cc2)n1 [Compound 9d, 4-(4-amino-6-{[3-(trifluoromethyl)phenyl]amino}-1,3,5-triazin-2-yl)phenol]",69 ± 2%,40 ± 5%,74 ± 1%,> 95%,–,–,–,–,–,95 ± 1%,1260 nM,–,–
"COc1ccc(Nc2nc(N)nc(-c3ccc(O)cc3)n2)cc1F [Compound 9a, 4-{4-amino-6-[(3-fluoro-4-methoxyphenyl)amino]-1,3,5-triazin-2-yl}phenol]",99 ± 1%,58 ± 1%,72 ± 2%,> 95%,–,–,139 nM,–,–,97 ± 1%,55.5 nM,2.5 and 2.51,56 ± 3%
"CCOC(=O)c1ccc(-c2nc(N)nc(Nc3ccc(OC)c(F)c3)n2)cc1 [Compound 11g, ethyl-4-{4-amino-6-[(3-fluoro-4-methoxyphenyl)amino]-1,3,5-triazin-2-yl}benzoate]",56 ± 1%,48 ± 6%,35 ± 2%,78 ± 3%,–,–,–,–,–,–,–,–,–
"COC(=O)c1ccc(-c2nc(N)nc(Nc3ccc(OC)c(F)c3)n2)cc1 [Compound 11f, methyl-4-{4-amino-6-[(3-fluoro-4-methoxyphenyl)amino]-1,3,5-triazin-2-yl}benzoate]",52 ± 1%,35 ± 6%,55 ± 2%,85 ± 1%,–,–,–,–,–,–,–,–,–
"COc1cc(Nc2nc(N)nc(-c3ccc(O)cc3)n2)cc(OC)c1 [Compound 9b, 4-{4-amino-6-[(3,5-dimethoxyphenyl)amino]-1,3,5-triazin-2-yl}phenol]",99 ± 1%,84 ± 4%,62 ± 2%,93 ± 1%,–,–,69.7 nM,–,–,–,–,–,–
"COc1ccc(Nc2nc(N)nc(-c3cc(F)c(O)c(F)c3)n2)cc1F [Compound 11h, 4-{4-amino-6-[(3-fluoro-4-methoxyphenyl)amino]-1,3,5-triazin-2-yl}-2,6-difluorophenol]",88 ± 1%,26 ± 5%,66 ± 6%,79 ± 1%,inactive,–,–,–,–,–,–,–,–
